Legend:
Details in all cases: incubation time: 72 h
MFM-223 [1] = assay: drug sensitivity score (DSS), CellTiter-Glo (DSS (AUC-based score)); higher = stronger drug effect (viability inhibition or cytotoxicity); extreme values may be limits of the assay
Procedure, shortened: (§1)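 Each compound occupied 5 concentrations in 10-fold steps over its own 10,000-fold range in 384-well plates, into which breast cancer cell lines were seeded as 20 µl suspension. Following 72 h of incubation, CellTox Green fluorescence (485/520 nm) was measured, and CellTiter-Glo luminescence was measured after 10 min at room temperature. Plates were individually normalised to 0.1 % DMSO and a positive kill control. From the area under the fitted dose-response curve, a drug sensitivity score was calculated.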

MDA-MB-453 [2] = assay: as above
Procedure, shortened: as §1

BT-474 = assay: as above
Procedure, shortened: as §1

HDQ-P1 [3] = assay: as above
Procedure, shortened: as §1

DU-4475 [4] = assay: as above
Procedure, shortened: as §1

CAL-85-1 [5] = assay: as above
Procedure, shortened: as §1

Hs578T [6] = assay: as above
Procedure, shortened: as §1

MDA-MB-231 [7] = assay: as above
Procedure, shortened: as §1

HCC1937 [8] = assay: as above
Procedure, shortened: as §1

CAL-120 [9] = assay: as above
Procedure, shortened: as §1

CAL-51 = assay: as above
Procedure, shortened: as §1

BT-549 [10] = assay: as above
Procedure, shortened: as §1

MDA-MB-436 = assay: normalised viability (% of control), CellTiter-Blue; higher = more viable cells (100 = DMSO, 0 = benzethonium chloride kill control)
Procedure: (§2)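 DSRT, CellTiter-Blue viability, 72 h incubation. Signal is normalised to DMSO and benzethonium chloride controls. Value is the normalised response at dose 1.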

MFM-223 [11] = assay: as above
Procedure: as §2

MDA-MB-453 [12] = assay: as above
Procedure: as §2

HCC1143 = assay: as above
Procedure: as §2

MDA-MB-468 = assay: as above
Procedure: as §2

HDQ-P1 [13] = assay: as above
Procedure: as §2

SK-BR-3 = assay: as above
Procedure: as §2

DU-4475 [14] = assay: as above
Procedure: as §2

CAL-148 = assay: as above
Procedure: as §2

CAL-85-1 [15] = assay: as above
Procedure: as §2

Hs578T [16] = assay: as above
Procedure: as §2

MDA-MB-231 [17] = assay: as above
Procedure: as §2

HCC1937 [18] = assay: as above
Procedure: as §2

CAL-120 [19] = assay: as above
Procedure: as §2

BT-549 [20] = assay: as above
Procedure: as §2

## Nc1ccccc1NC(=O)c1ccc(CNC(=O)OCc2cccnc2)cc1 [Entinostat]
MFM-223 [1]
  drug sensitivity score: 3.34
MDA-MB-453 [2]
  drug sensitivity score: 6.08
BT-474
  drug sensitivity score: 2.59
HDQ-P1 [3]
  drug sensitivity score: 2.05
DU-4475 [4]
  drug sensitivity score: 4.63
CAL-85-1 [5]
  drug sensitivity score: 1.24
Hs578T [6]
  drug sensitivity score: 4.83
MDA-MB-231 [7]
  drug sensitivity score: 2.59
HCC1937 [8]
  drug sensitivity score: 0
CAL-120 [9]
  drug sensitivity score: 0
CAL-51
  drug sensitivity score: 12.8
BT-549 [10]
  drug sensitivity score: 8.43
MDA-MB-436; 1 nM
  normalised viability: 124%
MFM-223 [11]; 1 nM
  normalised viability: 98.7%
MDA-MB-453 [12]; 1 nM
  normalised viability: 113%
HCC1143; 1 nM
  normalised viability: 95.7%
MDA-MB-468; 1 nM
  normalised viability: 110%
HDQ-P1 [13]; 1 nM
  normalised viability: 113%
SK-BR-3; 1 nM
  normalised viability: 102%
DU-4475 [14]; 1 nM
  normalised viability: 119%
CAL-148; 1 nM
  normalised viability: 95.8%
CAL-85-1 [15]; 1 nM
  normalised viability: 97%
Hs578T [16]; 1 nM
  normalised viability: 118%
MDA-MB-231 [17]; 1 nM
  normalised viability: 102%
HCC1937 [18]; 1 nM
  normalised viability: 80.4%
CAL-120 [19]; 1 nM
  normalised viability: 83.6%
BT-549 [20]; 1 nM
  normalised viability: 107%

## CC[C@@H]1C(=O)N(C)c2cnc(Nc3ccc(C(=O)NC4CCN(C)CC4)cc3OC)nc2N1C1CCCC1 [BI 2536]
MFM-223 [1]
  drug sensitivity score: 16.7
MDA-MB-453 [2]
  drug sensitivity score: 11.5
BT-474
  drug sensitivity score: 8.94
HDQ-P1 [3]
  drug sensitivity score: 4.76
DU-4475 [4]
  drug sensitivity score: 7.02
CAL-85-1 [5]
  drug sensitivity score: 14.1
Hs578T [6]
  drug sensitivity score: 13.3
MDA-MB-231 [7]
  drug sensitivity score: 13.3
HCC1937 [8]
  drug sensitivity score: 0
CAL-120 [9]
  drug sensitivity score: 11.2
CAL-51
  drug sensitivity score: 17.7
BT-549 [10]
  drug sensitivity score: 21.3
MDA-MB-436; 0.1 nM
  normalised viability: 112%
MFM-223 [11]; 0.1 nM
  normalised viability: 99%
MDA-MB-453 [12]; 0.1 nM
  normalised viability: 94.7%
HCC1143; 0.1 nM
  normalised viability: 109%
MDA-MB-468; 0.1 nM
  normalised viability: 114%
HDQ-P1 [13]; 0.1 nM
  normalised viability: 94%
SK-BR-3; 0.1 nM
  normalised viability: 98.5%
DU-4475 [14]; 0.1 nM
  normalised viability: 109%
CAL-148; 0.1 nM
  normalised viability: 98%
CAL-85-1 [15]; 0.1 nM
  normalised viability: 96.3%
Hs578T [16]; 0.1 nM
  normalised viability: 122%
MDA-MB-231 [17]; 0.1 nM
  normalised viability: 105%
HCC1937 [18]; 0.1 nM
  normalised viability: 86.5%
CAL-120 [19]; 0.1 nM
  normalised viability: 91.8%
BT-549 [20]; 0.1 nM
  normalised viability: 115%

## NCCCNCCSP(=O)(O)O [Amifostine]
MDA-MB-436; 1 nM
  normalised viability: 102%
MFM-223 [11]; 1 nM
  normalised viability: 76.4%
MDA-MB-453 [12]; 1 nM
  normalised viability: 97.4%
HCC1143; 1 nM
  normalised viability: 81.4%
MDA-MB-468; 1 nM
  normalised viability: 111%
HDQ-P1 [13]; 1 nM
  normalised viability: 98.3%
SK-BR-3; 1 nM
  normalised viability: 91.7%
DU-4475 [14]; 1 nM
  normalised viability: 91.6%
CAL-148; 1 nM
  normalised viability: 103%
CAL-85-1 [15]; 1 nM
  normalised viability: 85.2%
Hs578T [16]; 1 nM
  normalised viability: 107%
MDA-MB-231 [17]; 1 nM
  normalised viability: 80%
HCC1937 [18]; 1 nM
  normalised viability: 91.8%
CAL-120 [19]; 1 nM
  normalised viability: 73.3%
BT-549 [20]; 1 nM
  normalised viability: 98%

## N#Cc1ccc(C(c2ccc(C#N)cc2)n2cncn2)cc1 [Letrozole]
MFM-223 [1]
  drug sensitivity score: 0
MDA-MB-453 [2]
  drug sensitivity score: 0
BT-474
  drug sensitivity score: 0
HDQ-P1 [3]
  drug sensitivity score: 0
DU-4475 [4]
  drug sensitivity score: 0
CAL-85-1 [5]
  drug sensitivity score: 0
Hs578T [6]
  drug sensitivity score: 0
MDA-MB-231 [7]
  drug sensitivity score: 0
HCC1937 [8]
  drug sensitivity score: 0
CAL-120 [9]
  drug sensitivity score: 0
CAL-51
  drug sensitivity score: 0
BT-549 [10]
  drug sensitivity score: 0
MDA-MB-436; 1 nM
  normalised viability: 114%
MFM-223 [11]; 1 nM
  normalised viability: 49.6%
MDA-MB-453 [12]; 1 nM
  normalised viability: 96.4%
HCC1143; 1 nM
  normalised viability: 73.7%
MDA-MB-468; 1 nM
  normalised viability: 90.6%
HDQ-P1 [13]; 1 nM
  normalised viability: 90.9%
SK-BR-3; 1 nM
  normalised viability: 86.8%
DU-4475 [14]; 1 nM
  normalised viability: 96.3%
CAL-148; 1 nM
  normalised viability: 107%
CAL-85-1 [15]; 1 nM
  normalised viability: 83.2%
Hs578T [16]; 1 nM
  normalised viability: 94.5%
MDA-MB-231 [17]; 1 nM
  normalised viability: 78.8%
HCC1937 [18]; 1 nM
  normalised viability: 97.8%
CAL-120 [19]; 1 nM
  normalised viability: 74.3%
BT-549 [20]; 1 nM
  normalised viability: 105%

## C1CN1c1nc(N2CC2)nc(N2CC2)n1 [Triethylenemelamine]
MDA-MB-436; 1 nM
  normalised viability: 98.5%
MFM-223 [11]; 1 nM
  normalised viability: 100%
MDA-MB-453 [12]; 1 nM
  normalised viability: 104%
HCC1143; 1 nM
  normalised viability: 101%
MDA-MB-468; 1 nM
  normalised viability: 102%
HDQ-P1 [13]; 1 nM
  normalised viability: 109%
SK-BR-3; 1 nM
  normalised viability: 99%
DU-4475 [14]; 1 nM
  normalised viability: 104%
CAL-148; 1 nM
  normalised viability: 108%
CAL-85-1 [15]; 1 nM
  normalised viability: 107%
Hs578T [16]; 1 nM
  normalised viability: 108%
MDA-MB-231 [17]; 1 nM
  normalised viability: 96.2%
HCC1937 [18]; 1 nM
  normalised viability: 86.6%
CAL-120 [19]; 1 nM
  normalised viability: 103%
BT-549 [20]; 1 nM
  normalised viability: 107%

## CC[C@H](Nc1ncnc2[nH]cnc12)c1nc2cccc(F)c2c(=O)n1-c1ccccc1 [CAL-101]
MDA-MB-436; 1 nM
  normalised viability: 116%
MFM-223 [11]; 1 nM
  normalised viability: 91.1%
MDA-MB-453 [12]; 1 nM
  normalised viability: 89.8%
HCC1143; 1 nM
  normalised viability: 94%
MDA-MB-468; 1 nM
  normalised viability: 100%
HDQ-P1 [13]; 1 nM
  normalised viability: 89.5%
SK-BR-3; 1 nM
  normalised viability: 97.4%
DU-4475 [14]; 1 nM
  normalised viability: 106%
CAL-148; 1 nM
  normalised viability: 91.3%
CAL-85-1 [15]; 1 nM
  normalised viability: 90%
Hs578T [16]; 1 nM
  normalised viability: 118%
MDA-MB-231 [17]; 1 nM
  normalised viability: 82.3%
HCC1937 [18]; 1 nM
  normalised viability: 121%
CAL-120 [19]; 1 nM
  normalised viability: 104%
BT-549 [20]; 1 nM
  normalised viability: 97.9%

## CC(=O)Nc1cccc(-n2c(=O)n(C3CC3)c(=O)c3c(Nc4ccc(I)cc4F)n(C)c(=O)c(C)c32)c1
MDA-MB-436; 0.025 nM
  normalised viability: 101%
MFM-223 [11]; 0.025 nM
  normalised viability: 105%
MDA-MB-453 [12]; 0.025 nM
  normalised viability: 107%
HCC1143; 0.025 nM
  normalised viability: 102%
MDA-MB-468; 0.025 nM
  normalised viability: 112%
HDQ-P1 [13]; 0.025 nM
  normalised viability: 105%
SK-BR-3; 0.025 nM
  normalised viability: 135%
DU-4475 [14]; 0.025 nM
  normalised viability: 105%
CAL-148; 0.025 nM
  normalised viability: 107%
CAL-85-1 [15]; 0.025 nM
  normalised viability: 107%
Hs578T [16]; 0.025 nM
  normalised viability: 113%
MDA-MB-231 [17]; 0.025 nM
  normalised viability: 105%
HCC1937 [18]; 0.025 nM
  normalised viability: 93.7%
CAL-120 [19]; 0.025 nM
  normalised viability: 104%
BT-549 [20]; 0.025 nM
  normalised viability: 104%

## O=C(/C=C/c1cccnc1)NCCCCC1CCN(C(=O)c2ccccc2)CC1 [FK-866]
MDA-MB-436; 0.1 nM
  normalised viability: 107%
MFM-223 [11]; 0.1 nM
  normalised viability: 105%
MDA-MB-453 [12]; 0.1 nM
  normalised viability: 103%
HCC1143; 0.1 nM
  normalised viability: 97.5%
MDA-MB-468; 0.1 nM
  normalised viability: 106%
HDQ-P1 [13]; 0.1 nM
  normalised viability: 105%
SK-BR-3; 0.1 nM
  normalised viability: 94.4%
DU-4475 [14]; 0.1 nM
  normalised viability: 102%
CAL-148; 0.1 nM
  normalised viability: 110%
CAL-85-1 [15]; 0.1 nM
  normalised viability: 85.7%
Hs578T [16]; 0.1 nM
  normalised viability: 105%
MDA-MB-231 [17]; 0.1 nM
  normalised viability: 96.6%
HCC1937 [18]; 0.1 nM
  normalised viability: 107%
CAL-120 [19]; 0.1 nM
  normalised viability: 106%
BT-549 [20]; 0.1 nM
  normalised viability: 97.3%

## Cc1cnc(NC(=O)Nc2cc(Br)c(C)cc2OC[C@@H]2CNCCO2)cn1
MDA-MB-436; 0.1 nM
  normalised viability: 119%
MFM-223 [11]; 0.1 nM
  normalised viability: 102%
MDA-MB-453 [12]; 0.1 nM
  normalised viability: 99.5%
HCC1143; 0.1 nM
  normalised viability: 115%
MDA-MB-468; 0.1 nM
  normalised viability: 110%
HDQ-P1 [13]; 0.1 nM
  normalised viability: 84.2%
SK-BR-3; 0.1 nM
  normalised viability: 91.2%
DU-4475 [14]; 0.1 nM
  normalised viability: 108%
CAL-148; 0.1 nM
  normalised viability: 99.8%
CAL-85-1 [15]; 0.1 nM
  normalised viability: 96.7%
Hs578T [16]; 0.1 nM
  normalised viability: 106%
MDA-MB-231 [17]; 0.1 nM
  normalised viability: 93.3%
HCC1937 [18]; 0.1 nM
  normalised viability: 93.6%
CAL-120 [19]; 0.1 nM
  normalised viability: 98.6%
BT-549 [20]; 0.1 nM
  normalised viability: 87.9%
